The values below come from publication PMC3689833, “Neurochemical Changes in the Mouse Hippocampus Underlying the Antidepressant Effect of Genetic Deletion of P2X7 Receptors” (PLoS ONE, 2013).

One experiment deals with acute hippocampal slices. As to the kind of experiment: [3H]Glutamate and endogenous glutamate release from acute hippocampal slices. The class given is cell-based, mouse. As to the method:
The [^3H]Glu release experiments were conducted using the method described in our previous papers. Briefly, the mice were anaesthetized under light CO2 inhalation, and subsequently decapitated. The hippocampus was dissected from each mouse in ice-cold Krebs solution saturated with 95% O2 and 5% CO2, sectioned (400-µm-thick slices) using a McIlwain tissue chopper and incubated in 1 ml of modified Krebs solution (113 mM NaCl, 4.7 mM KCl, 2.5 mM CaCl2, 1.2 mM KH2PO4, 1.2 mM MgSO4, 25.0 mM NaHCO3, and 11.5 mM glucose), pH 7.4, in the presence of 5 µCi/ml [^3H]glutamic acid ([^3H]Glu, 9.8×10^−8 M, specific activity 51 Ci/mmol; Perkin Elmer) for 45 min. The medium was bubbled with 95% O2 and 5% CO2 and maintained at 32°C. After loading, the slices were continuously superfused with 95% O2 and 5% CO2-saturated modified Krebs solution (flow rate: 0.7 ml/min).
Subsequently, the perfused samples were collected over a 3-min period and measured for tritium content. At 6 min after the start of the collection, the slices were subjected to a 6-min perfusion of the agonist (ATP) at various concentrations (1, 3, 6 and 10 mM) and then changed to normal Krebs solution until the end of the collection period. In some experiments, the P2X1 receptor antagonist, NF449 (100 nM), or the selective P2rx7 antagonist Brilliant blue G (100 nM) was applied to the perfusion solution at 15 min before the beginning of the ATP perfusion.
The radioactivity released from the preparations was measured using a Packard 1900 Tricarb liquid scintillation spectrometer, using Ultima Gold Scintillation cocktail. The release of tritium was expressed as a percentage of the amount of radioactivity in the tissue at the sample collection time (fractional release). The tritium uptake in the tissue was determined as the sum of release+the tissue content after the experiment and expressed in Bq/g. For the evaluation of the basal tritium outflow the fractional release measured in four consecutive 3 min samples under drug free conditions were taken into account. The ATP-induced [^3H]Glu efflux calculated as the net release in response to the respective stimulus by subtracting the release before the stimulation from the values measured after stimulation. Selected samples collected under resting conditions and during the peak of the ATP-evoked response were subjected to further HPLC analyses.
The separation of pre-column dansylated amino acids was performed using a gradient elution-working mode at ambient temperature. The mobile phase A consisted of 5/95 (v/v) 78/22 acetonitrile/methanol in 15 mM ammonium formate buffer, and the mobile phase B was composed of 90/10 (v/v 78/22) acetonitrile/methanol in ammonium formate buffer, pH 3.7. The mobile phase B increased linearly (at 0.11 min to 50% 17 min to 72% and 26 min to 100%, followed by a final run to 54 min), the flow rate was 0.7 ml/min. The analytical and the trap column were equilibrated for 10 min, and enrichment and clean-up procedures were performed. The dansylated derivatives were detected using an absorbance detector (Agilent 1100) at a 319 nm wavelength. The retention time of the dansylated Glu was 11.4 min. Pre-column derivatization was performed by mixing 50 µl of dansyl chloride prepared by dissolving 5 mg 5-(dimethylamino)naphthalene-1-sulfonyl chloride in acetonitrile daily and adding 50 µl of 2 M sodium carbonate, which contained norvaline (20 µM) as an internal standard in 25 µl of sample. After a 10-min reaction time at 60°C, the mixture was acidified using 25 µl of 6 M formic acid and injected onto the “trap-column”.

Experiment [1] relates to P2rx7+/+ and P2rx7−/− mice. As to the kind of experiment: Sucrose preference test (SPT), LPS-induced anhedonia. The class given is in vivo, mouse. The settings on record: for inhibitory effect on LPS-induced anhedonia in P2rx7−/− mice: acute treatment; for effect on LPS-induced anhedonia in P2rx7−/− mice: subacute 4-day treatment, compared with P2rx7+/+. On the procedure:
The experiments were performed using the two-bottle sucrose preference paradigm. The decreased preference for sucrose vs. water in this test has been proposed to reflect impaired sensitivity towards reward and to model anhedonia. Mice were offered a choice of 2% sucrose solution or water during 12-hour nocturnal periods (starting at 19∶00). The bottles were weighed before and after each test session to monitor sucrose and water consumption. The relative position of the sucrose and water bottles were swapped every night to avoid place preferences. The baseline sucrose intake was measured under a habituation period of 3–4 days before administering the treatments, and the mean volume ingested over the last 3 training sessions was used as a baseline value. The sucrose consumption was measured for 4 consecutive nights after LPS (0.2 mg/kg i.p.) or saline administration and expressed as g/100 g body weight or as a percentage of the baseline (%).

Experiment [2] relates to BDNF level in hippocampal slices. As to the kind of experiment: BDNF protein assay (ELISA), in vitro study in hippocampal slices. In kind it is cell-based, mouse. The settings on record: for effect on the inhibitory effect of BzATP on BDNF level / effect on basal BDNF level, compound alone (no BzATP): CNQX 10 µM, TCN-201 10 µM; for effect on the inhibitory effect of BzATP on BDNF level / effect on basal BDNF level, compound alone (no BzATP) / BDNF level in hippocampal slices in the presence of BzATP: RO-256981 3 µM, MCPG 200 µM; for BDNF level in hippocampal slices in the presence of BzATP: + BzATP 100 µM, BBG 100 nM, DHPG 100 µM; for BDNF level in hippocampal slices, compound alone: RO-256981 3 µM 15 min, DHPG 100 µM 10 min. On the procedure: The P2rx7 wild type and knockout mice were anesthetized under light CO2 inhalation and decapitated. The hippocampus was dissected in ice-cold Krebs solution saturated with 95% O2 and 5% CO2, sectioned (400 µm thick slices) using a McIlwain tissue chopper and incubated in 2 ml of modified Krebs solution in the presence of 1 ml Hibernate medium, ascorbic acid (300 µM) and Na2EDTA (30 µM) for 60 min. The medium was bubbled continuously with 95% O2 and 5% CO2 and maintained at 37°C. The P2rx7 agonist, BzATP, was added to the incubation solution for 30 min, whereas BBG was applied 15 min before BzATP application. RO-256981, 6-cyano-7-nitroquinoxaline-2,3-dione (CNQX) and 3-Chloro-4-fluoro-N-[4[[2(phenylcarbonyl)hydrazino]carbonyl]benzyl] benzenesulfonamide (TCN-201) were applied for 15 min, while MCPG was administered for 30 min. The group I metabotropic glutamate receptor agonist, dihydroxyphenylglycine (DHPG), was administered for 10 min. The DHPG, MCPG, and RO-256981 dosages were chosen based on previous studies, [47], [48]. In the experiments with BzATP, Mg^2+ was omitted from the incubation solution. The hippocampal slices were collected, frozen on dry ice and stored at −70°C until further investigation. Each experimental group contained 3–4 mice.
At the time of analysis, the samples were removed from the freezer and weighed. The BDNF extraction procedure was performed in accordance with the methods of a previous study. For the BDNF assays, 2 ml lysis buffer (100 mM PIPES, pH 7, 500 mM NaCl, 0.2% Triton X-100, 0.1% NaN3, 2% BSA, 2 mM EDTA, 200 µM PMSF, 10 µg/mL aprotinin, 1 µg/mL leupeptin, and 0.5 mM sodium vanadate) was added to each sample, and the hippocampus was sonicated at power level 2 using pulses at 1 sec intervals for 10–15 sec. Subsequently, the samples were centrifuged at 16,000 × g for 30 min at 4°C. 100 µl aliquots of the resulting supernatants were removed and diluted with 400 µl of DPBS buffer (137 mM NaCl, 2.68 mM KCl, 1.47 mM KH2PO4, 8.1 mM Na2HPO4 (pH 7.35), 0.9 mM CaCl2·H2O, and 0.5 mM MgCl2·H2O). The supernatants were collected and stored at −70?C until further analysis. For the total free BDNF measurement, the samples were acid treated with 1 µl of 1 N HCl for each 50 µl of diluted samples to decrease the pH to 2.5, followed by incubation at room temperature for 15 min. The samples were neutralized with 1 µl of 1 N NaOH for each 50 µl of diluted samples. The levels of BDNF (both precursor and mature forms) expression were evaluated using an enzyme-linked immunosorbent assay (ELISA) kit and a BDNF Emax ImmunoAssay System (Promega Corporation, Madison, WI, USA), which is specific for mouse BDNF protein, according to the manufacturer’s instructions. The BDNF levels were calculated by plotting the optical density (OD) of each sample against the standard curve. A seven-point standard curve using two-fold serial dilutions in Reagent Diluent (according the manufacturer’s instructions) and a high standard of 500 pg/ml were used for the determination of BDNF levels. The assay detection limits were <15 pg/ml. Absorbance was measured at 450 nm using a Perkin-Elmer Victor 3V 1420 Multilabel Counter.
A general note: An ELISA detects its analyte on a solid surface through an enzyme-linked reagent.

Setting [3] is: P2rx7+/+ slices, BzATP 100 µM 30 min, Mg2+-free.

`Nc1ncnc2c1ncn2[C@@H]1O[C@H](COP(=O)(O)OP(=O)(O)OP(=O)(O)O)[C@@H](O)[C@H]1O` [ATP]: the “net release of tritium ([3H]Glu, fractional release)” value in the experiment with acute hippocampal slices (P2rx7+/+ slices, 10 mM ATP, 6-min perfusion) is recorded as 3.34±0.57%. Besides, the “endogenous glutamate level in effluent (HPLC)” value with acute hippocampal slices (P2rx7+/+ slices, 10 mM ATP, peak vs resting) is reported as “remarkable elevation”. Besides, in the experiment with acute hippocampal slices (P2rx7+/+ slices, 6-min perfusion, 1–10 mM), the “efflux of [3H]Glu” value is on record as “concentration-dependent increase”. Besides, in the experiment with acute hippocampal slices (P2rx7−/− slices, 10 mM ATP), the “net [3H]Glu efflux (fractional release)” value is reported as 0.25±0.43%.

With `O=C(CC12CC3CC(CC(C3)C1)C2)Nc1cccc2nc(NCCNCCO)ccc12` [AZ-10606120], the “amount of sucrose consumed on the 3rd day after LPS injection” value in experiment [1] (P2rx7+/+ mice, acute injection 2 mg/kg i.p. 30 min before LPS, vs control) was “significantly higher”. For the same molecule, the “amount of sucrose consumed on the day after LPS injection” value in experiment [1] (P2rx7+/+ mice, subacute treatment 2 mg/kg i.p., vs control) was “significantly higher”. Also, in experiment [1], the “inhibitory effect on LPS-induced anhedonia in P2rx7−/− mice” value is recorded as “completely absent” and the “effect on LPS-induced anhedonia in P2rx7−/− mice” value is given as “significantly attenuated”.

`Nc1ncnc2c1ncn2[C@@H]1O[C@H](COP(=O)(O)OP(=O)(O)OP(=O)(O)O)[C@@H](OC(=O)c2ccc(C(=O)c3ccccc3)cc2)[C@H]1O` [BzATP, 3′-O-(4-benzoyl-benzoyl)adenosine 5′-triphosphate]: in experiment [2] (setting [3]), the “BDNF level in hippocampal slices” value was 13.85 ± 0.98 pg/mL and the “decrease of basal BDNF level” value came out at 25.73%. Also, in experiment [2] (P2rx7−/− slices, BzATP 100 µM, Mg2+-free), the “effect on BDNF level” value is listed as “without significantly affecting”.

With `N#Cc1cc2[nH]c(=O)c(=O)[nH]c2cc1[N+](=O)[O-]` [CNQX, 6-cyano-7-nitroquinoxaline-2,3-dione], in experiment [2] (P2rx7+/+ slices, BzATP 100 µM), the “effect on the inhibitory effect of BzATP on BDNF level” value (from here on “effect on the inhibitory effect”) is given as “occluded”. In addition, the “effect on basal BDNF level, compound alone (no BzATP)” value (from here on “effect … (no BzATP)”) in experiment [2] (P2rx7+/+ slices) is given as “decreased”.

Regarding `NC(C(=O)O)c1cc(O)cc(O)c1` (stereo not shown) [DHPG, 3,5-dihydroxyphenylglycine], in experiment [2] (P2rx7+/+ slices, Mg2+-free), the “BDNF level in hippocampal slices in the presence of BzATP” value is 54.14 ± 1.92 pg/mL. In experiment [2] (P2rx7+/+ slices), the “BDNF level in hippocampal slices, compound alone” value was determined as 41.59 ± 0.40 pg/mL.

On to `CC(N)(C(=O)O)c1ccc(C(=O)O)cc1` (stereo not drawn) [MCPG, α-Methyl-4-carboxyphenylglycine], for which the “BDNF level in hippocampal slices in the presence of BzATP” value in experiment [2] (P2rx7+/+ slices, Mg2+-free) was 6.09 ± 1.17 pg/mL. Moreover, the “decrease of BDNF level in the presence of BzATP” value in experiment [2] (P2rx7+/+ slices, BzATP 100 µM + MCPG 200 µM) was 67.34%. The “effect on the inhibitory effect” value in experiment [2] (P2rx7+/+ slices, BzATP 100 µM) is given as “did not antagonize”. Further, in experiment [2] (P2rx7+/+ slices), the “effect … (no BzATP)” value is given as “significantly diminished”.

Regarding `O=C(Nc1cc(C(=O)Nc2ccc(S(=O)(=O)[O-])cc2S(=O)(=O)[O-])cc(C(=O)Nc2ccc(S(=O)(=O)[O-])cc2S(=O)(=O)[O-])c1)Nc1cc(C(=O)Nc2ccc(S(=O)(=O)[O-])cc2S(=O)(=O)[O-])cc(C(=O)Nc2ccc(S(=O)(=O)[O-])cc2S(=O)(=O)[O-])c1.[Na+].[Na+].[Na+].[Na+].[Na+].[Na+].[Na+].[Na+]` [NF449, 4,4′,4′′,4′′′-[Carbonylbis(imino-5,1,3-benzenetriyl-bis(carbonylimino))]tetrakis-1,3-benzenedisulfonic acid, octasodium salt], the “residual ATP-evoked [3H]Glu efflux in presence of antagonist” value in the experiment on acute hippocampal slices (P2rx7−/− slices, ATP 10 mM, antagonist 100 nM 15 min before ATP) is on record as “sensitive to inhibition”.

Turning to `C[C@@H](CN1CCC(Cc2ccccc2)CC1)[C@@H](O)c1ccc(O)cc1.O=C(O)/C=C\C(=O)O` [RO-256981, (αR,βS)-α-(4-Hydroxyphenyl)-β-methyl-4-(phenylmethyl)-1-piperidinepropanol maleate], the “BDNF level in hippocampal slices in the presence of BzATP” value in experiment [2] (P2rx7+/+ slices, Mg2+-free) came to 15.75 ± 0.44 pg/mL. Besides, the “effect on the inhibitory effect” value in experiment [2] (P2rx7+/+ slices, BzATP 100 µM) is reported as “occluded”. Further, in experiment [2] (P2rx7+/+ slices), the “effect … (no BzATP)” value is recorded as “decreased” and the “BDNF level in hippocampal slices, compound alone” value is 15.20 ± 0.12 pg/mL.

On to `O=C(NNC(=O)c1ccc(CNS(=O)(=O)c2ccc(F)c(Cl)c2)cc1)c1ccccc1` [TCN-201, 3-Chloro-4-fluoro-N-[4[[2(phenylcarbonyl)hydrazino]carbonyl]benzyl] benzenesulfonamide], for which the “effect on the inhibitory effect” value in experiment [2] (P2rx7+/+ slices, BzATP 100 µM) is reported as “occluded”. Further, in experiment [2] (P2rx7+/+ slices), the “effect … (no BzATP)” value is “unaffected”.

`CN(C)CCCC1(c2ccc(F)cc2)OCc2cc(C#N)ccc21` (stereo not shown) [citalopram]: in experiment [1], the “inhibitory effect on LPS-induced anhedonia in P2rx7−/− mice” value was “largely preserved” and the “effect on LPS-induced anhedonia in P2rx7−/− mice” value is given as “largely preserved”.
